{
  "source": "patent US7312193B2",
  "about": "“Calcium phosphopeptide complexes” (The University of Melbourne, priority 1997, dated 2007)",
  "key": {"[1]": {"test": "Calcium phosphate binding by CPP and synthetic homologues and analogues", "conditions": "for Vca: calcium bound per peptide; for VPi: inorganic phosphate bound per peptide; for Ca bound per molecule / Pi bound per molecule: maximal binding, 0.1% w/v peptide; for Ca/P: ratio of bound Ca to bound Pi", "from_the_text": "Casein phosphopeptides containing the Ser(P) cluster, i.e. the core sequence motif Ser(P)-Ser(P)-Ser(P)-Glu-Glu-(SEQ ID NO: 5), have a marked ability to stabilize calcium phosphate in solution. Solutions containing 0.1% w/v αs1(59-79) (SEQ ID NO: 1) at various pH, calcium and phosphate concentrations, but constant ionic strengths were used to characterize the peptide's interaction with calcium phosphate.\nThe ion activity products for the various calcium phosphate phases [hydroxyapatite (HA); octacalcium phosphate (OCP); tricalcium phosphate (TCP); amorphous calcium phosphate (ACP); and dicalcium phosphate dihydrate (DCPD) were determined from the free calcium and phosphate concentrations at each pH using a computer program that calculates the ion activity coefficients through the use of the expanded Debye-Hückel equation and takes into account the ion pairs CaHPO4^o, CaH2PO4^+, CaPO4^−and CaOH^+ the dissociation of H3PO4 and H2O and the ionic strength. […] The peptide αs1(59-79) (SEQ ID NO: 1) binds to forming ACP clusters producing a metastable solution preventing ACP growth to the critical size required for nucleation and precipitation. The binding of αs1(59-79) (SEQ ID NO: 1) to ACP results in the formation of colloidal complexes with the unit formula [αs1(59-79) (SEQ ID NO: 1)(ACP)8]n where n is equal to or greater than one. It is likely that the predominant form is n=6 as αs1(59-79) (SEQ ID NO: 1) cross-linked with glutaraldehyde in the presence of ACP runs as a hexamer on polyacrylamide gel electrophoresis.\nThe relationship between CPP structure and interaction with amorphous calcium phosphate was investigated using a series of synthetic peptide homologues and analogues indicated in Table 1."}, "[2]": {"test": "CPP and synthetic peptide binding to HA at 37° C.", "conditions": "affinity constant", "from_the_text": "Similarly, we investigated the adsorption of the CPP and synthetic homologues and analogues onto HA (Table 2)."}},
  "note": "Square brackets hold non-standard residues; d marks the D form. Ends that are not written are not given here. pT = C[C@@H](OP(=O)(O)O)[C@H](N)C(=O)O; pS = N[C@@H](COP(=O)(O)O)C(=O)O",
  "data": [
    {"substance": "AcGlu-Ser(P)-Ile-Ser(P)-Ser(P)-Ser(P)-Glu-GluNHMe [αs1(63-70)]", "values": [
      {"measurement": "Vca", "setting": "[1]", "result": 12, "unit": "mol/mol"},
      {"measurement": "VPi", "setting": "[1]", "result": 8, "unit": "mol/mol"},
      {"measurement": "Ca bound per molecule", "setting": "[1]", "result": 12, "unit": "per molecule"},
      {"measurement": "Pi bound per molecule", "setting": "[1]", "result": 8, "unit": "per molecule"},
      {"measurement": "Ca/P", "setting": "[1]", "result": 1.5},
      {"measurement": "K", "setting": "[2]", "result": "10,370 ml/μmol"}
    ]},
    {"substance": "AΣAE (A[pS]AE)", "values": [
      {"measurement": "Vca", "setting": "[1]", "result": 0, "unit": "mol/mol"},
      {"measurement": "VPi", "setting": "[1]", "result": 0, "unit": "mol/mol"}
    ]},
    {"substance": "AΣAΣAE (A[pS]A[pS]AE)", "values": [
      {"measurement": "Vca", "setting": "[1]", "result": 0, "unit": "mol/mol"},
      {"measurement": "VPi", "setting": "[1]", "result": 0, "unit": "mol/mol"}
    ]},
    {"substance": "AΣAΣAΣAE (A[pS]A[pS]A[pS]AE)", "values": [
      {"measurement": "Vca", "setting": "[1]", "result": 2, "unit": "mol/mol"},
      {"measurement": "VPi", "setting": "[1]", "result": 1, "unit": "mol/mol"},
      {"measurement": "Ca/P", "setting": "[1]", "result": 1.5}
    ]},
    {"substance": "AΣAΣAΣAΣAE (A[pS]A[pS]A[pS]A[pS]AE)", "values": [
      {"measurement": "Vca", "setting": "[1]", "result": 6, "unit": "mol/mol"},
      {"measurement": "VPi", "setting": "[1]", "result": 4, "unit": "mol/mol"},
      {"measurement": "Ca/P", "setting": "[1]", "result": 1.5}
    ]},
    {"substance": "DΣΣEE (D[pS][pS]EE)", "values": [
      {"measurement": "Vca", "setting": "[1]", "result": 2, "unit": "mol/mol"},
      {"measurement": "VPi", "setting": "[1]", "result": 1, "unit": "mol/mol"},
      {"measurement": "Ca/P", "setting": "[1]", "result": 2.0},
      {"measurement": "K", "setting": "[2]", "result": "6,579 ml/μmol"}
    ]},
    {"substance": "EAIAΣAEA (EAIA[pS]AEA)", "values": [
      {"measurement": "Vca", "setting": "[1]", "result": 0, "unit": "mol/mol"},
      {"measurement": "VPi", "setting": "[1]", "result": 0, "unit": "mol/mol"}
    ]},
    {"substance": "EΣLΣΣΣEE [β(14-21)]", "values": [
      {"measurement": "Vca", "setting": "[1]", "result": 12, "unit": "mol/mol"},
      {"measurement": "VPi", "setting": "[1]", "result": 8, "unit": "mol/mol"},
      {"measurement": "Ca/P", "setting": "[1]", "result": 1.5}
    ]},
    {"substance": "EΣΣEE (E[pS][pS]EE)", "values": [
      {"measurement": "Vca", "setting": "[1]", "result": 2, "unit": "mol/mol"},
      {"measurement": "VPi", "setting": "[1]", "result": 1, "unit": "mol/mol"},
      {"measurement": "Ca/P", "setting": "[1]", "result": 2.0},
      {"measurement": "K", "setting": "[2]", "result": "1,513 ml/μmol"}
    ]},
    {"substance": "Gln-Met-Glu-Ala-Glu (QMEAE) [αs1(59-63)]", "values": [
      {"measurement": "calcium phosphate binding", "setting": "[1]", "result": "did not bind calcium phosphate"},
      {"measurement": "Vca", "setting": "[1]", "result": 0, "unit": "mol/mol"},
      {"measurement": "VPi", "setting": "[1]", "result": 0, "unit": "mol/mol"}
    ]},
    {"substance": "IAΣAEA (IA[pS]AEA)", "values": [
      {"measurement": "Vca", "setting": "[1]", "result": 0, "unit": "mol/mol"},
      {"measurement": "VPi", "setting": "[1]", "result": 0, "unit": "mol/mol"}
    ]},
    {"substance": "IVPN[pS]VEQ [αs1(71-78)]", "values": [
      {"measurement": "calcium phosphate binding", "setting": "[1]", "result": "did not bind calcium phosphate"},
      {"measurement": "Vca", "setting": "[1]", "result": 0, "unit": "mol/mol"},
      {"measurement": "VPi", "setting": "[1]", "result": 0, "unit": "mol/mol"}
    ]},
    {"substance": "QMEAEΣIΣΣΣEEIVPNΣVEQK (QMEAE[pS]I[pS][pS][pS]EEIVPN[pS]VEQK; listed as Bos sp.) [αs1(59-79), tryptic casein phosphopeptide]", "values": [
      {"measurement": "Vca", "setting": "[1]", "result": 24, "unit": "mol/mol"},
      {"measurement": "VPi", "setting": "[1]", "result": 16, "unit": "mol/mol"},
      {"measurement": "Ca bound per molecule", "setting": "[1]", "result": 24, "unit": "per molecule"},
      {"measurement": "Pi bound per molecule", "setting": "[1]", "result": 16, "unit": "per molecule"},
      {"measurement": "Ca/P", "setting": "[1]", "result": 1.5},
      {"measurement": "K", "setting": "[2]", "result": 415, "unit": "mL/µmol"}
    ]},
    {"substance": "RELEELNVPGEIVEΣLΣΣΣEESITR (RELEELNVPGEIVE[pS]L[pS][pS][pS]EESITR; listed as Bos sp.) [β(1-25), tryptic casein phosphopeptide]", "values": [
      {"measurement": "Vca", "setting": "[1]", "result": 24, "unit": "mol/mol"},
      {"measurement": "VPi", "setting": "[1]", "result": 16, "unit": "mol/mol"},
      {"measurement": "Ca/P", "setting": "[1]", "result": 1.5}
    ]},
    {"substance": "SΣΣEE (S[pS][pS]EE)", "values": [
      {"measurement": "Vca", "setting": "[1]", "result": 2, "unit": "mol/mol"},
      {"measurement": "VPi", "setting": "[1]", "result": 1, "unit": "mol/mol"},
      {"measurement": "Ca/P", "setting": "[1]", "result": 2.0}
    ]},
    {"substance": "SθθEE (S[pT][pT]EE)", "values": [
      {"measurement": "Vca", "setting": "[1]", "result": 2, "unit": "mol/mol"},
      {"measurement": "VPi", "setting": "[1]", "result": 1, "unit": "mol/mol"},
      {"measurement": "Ca/P", "setting": "[1]", "result": 2.0}
    ]},
    {"substance": "TθθEE (T[pT][pT]EE)", "values": [
      {"measurement": "K", "setting": "[2]", "result": "1,013 ml/μmol"}
    ]},
    {"substance": "[pS][pS][pS]EE [ΣΣΣEE]", "values": [
      {"measurement": "Vca", "setting": "[1]", "result": 9, "unit": "mol/mol"},
      {"measurement": "VPi", "setting": "[1]", "result": 6, "unit": "mol/mol"},
      {"measurement": "Ca/P", "setting": "[1]", "result": 1.5},
      {"measurement": "K", "setting": "[2]", "result": "12,845 ml/μmol"}
    ]},
    {"substance": "θTθEE ([pT]T[pT]EE)", "values": [
      {"measurement": "K", "setting": "[2]", "result": 837, "unit": "mL/µmol"}
    ]},
    {"substance": "θθTEE", "values": [
      {"measurement": "K", "setting": "[2]", "result": "1,799 ml/μmol"}
    ]}
  ]
}
